Data from patent publication US8946215B2, “Hydroxy-substituted imidazo[1,2-a]pyridinecarboxamides and their use” (Bayer Pharma Aktiengesellschaft, priority 2012, dated 2015).
Where a name gives a salt, the structure may show the parent alone.

What follows are molecules tested against T1, recombinant guanylate cyclase reporter cell line (Rattus norvegicus, UniProt P19686+P20595) (assay: Action on recombinant guanylate cyclase reporter cell line). Settings: in some cases mean values obtained from individual determinations.
T1 construct: expressed in transfected cells
T1 sequence (P20595 1-619): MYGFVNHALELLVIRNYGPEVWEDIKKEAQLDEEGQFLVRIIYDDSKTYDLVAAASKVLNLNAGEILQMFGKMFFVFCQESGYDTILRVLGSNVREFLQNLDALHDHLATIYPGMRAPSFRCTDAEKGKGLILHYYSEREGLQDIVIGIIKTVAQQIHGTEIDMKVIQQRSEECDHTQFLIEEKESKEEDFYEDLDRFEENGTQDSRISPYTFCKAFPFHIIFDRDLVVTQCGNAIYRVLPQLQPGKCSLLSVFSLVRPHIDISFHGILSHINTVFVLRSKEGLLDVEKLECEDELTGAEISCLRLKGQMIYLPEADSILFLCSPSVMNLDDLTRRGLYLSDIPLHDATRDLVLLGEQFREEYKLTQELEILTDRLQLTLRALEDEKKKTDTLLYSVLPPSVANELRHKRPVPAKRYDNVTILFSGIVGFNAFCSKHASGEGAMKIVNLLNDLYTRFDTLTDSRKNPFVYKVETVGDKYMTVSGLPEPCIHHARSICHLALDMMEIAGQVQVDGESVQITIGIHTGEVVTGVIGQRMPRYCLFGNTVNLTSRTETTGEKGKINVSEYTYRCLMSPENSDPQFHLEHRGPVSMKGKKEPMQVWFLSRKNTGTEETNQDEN
T1 sequence (P19686 1-690): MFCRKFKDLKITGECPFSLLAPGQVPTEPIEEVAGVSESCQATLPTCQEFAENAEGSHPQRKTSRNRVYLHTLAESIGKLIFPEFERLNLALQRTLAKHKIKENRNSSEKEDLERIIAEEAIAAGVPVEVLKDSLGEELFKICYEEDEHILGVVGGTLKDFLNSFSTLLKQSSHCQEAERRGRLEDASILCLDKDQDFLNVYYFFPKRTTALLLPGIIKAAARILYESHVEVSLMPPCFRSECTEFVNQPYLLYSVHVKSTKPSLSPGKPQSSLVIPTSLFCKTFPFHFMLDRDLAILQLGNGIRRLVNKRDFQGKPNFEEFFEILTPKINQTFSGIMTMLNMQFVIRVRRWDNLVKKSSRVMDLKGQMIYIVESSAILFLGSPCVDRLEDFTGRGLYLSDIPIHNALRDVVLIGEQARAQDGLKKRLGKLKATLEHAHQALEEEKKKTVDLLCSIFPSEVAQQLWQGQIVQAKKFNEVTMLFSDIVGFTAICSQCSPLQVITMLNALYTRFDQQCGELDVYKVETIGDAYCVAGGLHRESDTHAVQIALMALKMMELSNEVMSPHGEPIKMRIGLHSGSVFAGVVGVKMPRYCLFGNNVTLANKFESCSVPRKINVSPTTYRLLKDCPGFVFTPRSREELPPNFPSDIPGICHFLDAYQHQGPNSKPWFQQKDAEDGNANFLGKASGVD
Type: cell-based
Outline: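 Cell-based reporter assay with recombinant guanylate cyclase expressed in a reporter cell line, per a published method. Activity reported as minimal effective concentration (MEC), in some cases as the mean of individual determinations.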

Row | MEC (minimal effective concentration) [µM] | Structure (SMILES)
1 | 1.0 | CSCC[C@@H](CO)NC(=O)c1c(C)nc2c(OCC3CCCCC3)cccn12 [Example 90, 8-(cyclohexylmethoxy)-N-[(2S)-1-hydroxy-4-(methylsulphanyl)butan-2-yl]-2-methylimidazo[1,2-a]pyridine-3-carboxamide]
2 | 1.0 | CC[C@H](C)[C@@H](CO)NC(=O)c1c(C)nc2c(OCC3CCCCC3)cccn12 [Example 91, 8-(cyclohexylmethoxy)-N-[(2S,3S)-1-hydroxy-3-methylpentan-2-yl]-2-methylimidazo[1,2-a]pyridine-3-carboxamide]
3 | 1.0 | Cc1nc2c(OCC3CCCCC3)cccn2c1C(=O)NC1(CO)CCCC1 [Example 92, 8-(cyclohexylmethoxy)-N-[1-(hydroxymethyl)cyclopentyl]-2-methylimidazo[1,2-a]pyridine-3-carboxamide]
4 | 1.0 | Cc1nc2c(OCC3CCCCC3)cccn2c1C(=O)N[C@H](CO)C(C)C [Example 93, 8-(cyclohexylmethoxy)-N-[(2S)-1-hydroxy-3-methylbutan-2-yl]-2-methylimidazo[1,2-a]pyridine-3-carboxamide]
5 | 3.0 | Cc1nc2c(OCC3CCCCC3)cccn2c1C(=O)N[C@H](CO)CC(C)C [Example 95, 8-(cyclohexylmethoxy)-N-[(2S)-1-hydroxy-4-methylpentan-2-yl]-2-methylimidazo[1,2-a]pyridine-3-carboxamide]
6 | 3.0 | CCC(C)[C@H](CO)NC(=O)c1c(C)nc2c(OCC3CCCCC3)cccn12 (stereo partly drawn) [Example 96, 8-(cyclohexylmethoxy)-N-[(2R)-1-hydroxy-3-methylpentan-2-yl]-2-methylimidazo[1,2-a]pyridine-3-carboxamide]
7 | 1.0 | Cc1nc2c(OCC3CCC3)cccn2c1C(=O)NCCC1(O)CCCC1 [Example 97, 8-(cyclobutylmethoxy)-N-[2-(1-hydroxycyclopentyl)ethyl]-2-methylimidazo[1,2-a]pyridine-3-carboxamide]
8 | 3.0 | Cc1nc2c(OCC3CCC3)cccn2c1C(=O)NCCOCCO [Example 98, 8-(cyclobutylmethoxy)-N-[2-(2-hydroxyethoxy)ethyl]-2-methylimidazo[1,2-a]pyridine-3-carboxamide]
9 | 3.0 | Cc1nc2c(OCC3CCC3)cccn2c1C(=O)NCCC1(O)CCCCC1 [Example 99, 8-(cyclobutylmethoxy)-N-[2-(1-hydroxycyclohexyl)ethyl]-2-methylimidazo[1,2-a]pyridine-3-carboxamide]
10 | 0.01 | [2H]C([2H])(Oc1cccn2c(C(=O)N[C@@H](CO)CCCC)c(C)nc12)c1c(F)cccc1F [Example 115, 8-{[(2,6-difluorophenyl)(^2H2)methyl]oxy}-N-[(2R)-1-hydroxyhexan-2-yl]-2-methylimidazo[1,2-a]pyridine-3-carboxamide]
11 | 0.3 | Cc1nc2c(OCc3c(F)cccc3F)cccn2c1C(=O)NCCC1(O)CCCCC1 [Example 116, 8-[(2,6-difluorobenzyl)oxy]-N-[2-(1-hydroxycyclohexyl)ethyl]-2-methylimidazo[1,2-a]pyridine-3-carboxamide]
12 | 0.03 | Cc1nc2c(OCc3c(F)cccc3F)cccn2c1C(=O)NCCC1(O)CCCC1 [Example 117, 8-[(2,6-difluorobenzyl)oxy]-N-[2-(1-hydroxycyclopentyl)ethyl]-2-methylimidazo[1,2-a]pyridine-3-carboxamide]
13 | 0.3 | Cc1nc2c(OCc3c(F)cccc3F)cccn2c1C(=O)N[C@H](C)CO [Example 118, 8-[(2,6-difluorobenzyl)oxy]-N-[(2R)-1-hydroxypropan-2-yl]-2-methylimidazo[1,2-a]-pyridine-3-carboxamide]
14 | 0.3 | Cc1nc2c(OCc3c(F)cccc3F)cccn2c1C(=O)NC1(CO)CCC1 [Example 125, 8-[(2,6-Difluorobenzyl)oxy]-N-[1-(hydroxymethyl)cyclobutyl]-2-methylimidazo[1,2-a]pyridine-3-carboxamide]
15 | 0.1 | C#Cc1cc(OCc2c(F)cccc2F)c2nc(C)c(C(=O)N[C@@H](CO)CCCC)n2c1 [Example 126, 8-[(2,6-Difluorobenzyl)oxy]-6-ethynyl-N-[(2R)-hydroxyhexan-2-yl]-2-methylimidazo[1,2-a]-pyridine-3-carboxamide]
16 | 0.3 | Cc1nc2c(OCc3c(F)cccc3F)cc(Cl)cn2c1C(=O)N[C@@H](CO)CCCO [Example 127, 6-Chloro-8-[(2,6-difluorobenzyl)oxy]-N-[(2R)-1,5-dihydroxypentan-2-yl]-2-methylimidazo[1,2-a]-pyridine-3-carboxamide]
17 | 0.3 | Cc1nc2c(OCc3c(F)cccc3F)cc(Cl)cn2c1C(=O)N[C@@H](CO)CCO [Example 128, 6-chloro-8-[(2,6-difluorobenzyl)oxy]-N-[(2R)-1,4-dihydroxybutan-2-yl]-2-methylimidazo[1,2-a]pyridine-3-carboxamide]
18 | 3.0 | Cc1nc2c(OCc3c(F)cccc3F)cccn2c1C(=O)N[C@@H](CO)CCO [Example 129, 8-[(2,6-difluorobenzyl)oxy]-N-[(2R)-1,4-dihydroxybutan-2-yl]-2-methylimidazo[1,2-a]pyridine-3-carboxamide]
19 | 1.0 | Cc1nc2c(OCc3c(F)cccc3F)cccn2c1C(=O)N[C@@H](CO)CCCO [Example 130, 8-[(2,6-difluorobenzyl)oxy]-N-[(2R)-1,5-dihydroxypentan-2-yl]-2-methylimidazo[1,2-a]pyridine-3-carboxamide]
20 | 0.01 | CCCC[C@H](CO)NC(=O)c1c(C)nc2c(OCc3c(F)cccc3F)cc(Cl)cn12 [Example 131, 6-chloro-8-[(2,6-difluorobenzyl)oxy]-N-[(2R)-1-hydroxyhexan-2-yl]-2-methylimidazo[1,2-a]pyridine-3-carboxamide]
21 | 0.03 | CCCC[C@H](CO)NC(=O)c1c(C)nc2c(OCc3c(F)cccc3F)cc(F)cn12 [Example 132, 8-[(2,6-difluorobenzyl)oxy]-6-fluoro-N-[(2R)-1-hydroxyhexan-2-yl]-2-methylimidazo[1,2-a]pyridine-3-carboxamide]
22 | 0.01 | CCCC[C@H](CO)NC(=O)c1c(C)nc2c(OCc3c(F)cccc3F)cc(C)cn12 [Example 133, 8-[(2,6-difluorobenzyl)oxy]-N-[(2R)-1-hydroxyhexan-2-yl]-2,6-dimethylimidazo[1,2-a]pyridine-3-carboxamide]
23 | 0.1 | Cc1nc2c(OCc3c(F)cccc3F)cccn2c1C(=O)N[C@@H](CO)CC[C@@H](O)C(F)(F)F [Example 135, 8-[(2,6-difluorobenzyl)oxy]-2-methyl-N-[(2R,5R)-6,6,6-trifluoro-1,5-dihydroxyhexan-2-yl]imidazo[1,2-a]pyridine-3-carboxamide trifluoroacetate (1:1)]
24 | 3.0 | Cc1nc2c(OCc3c(F)cccc3F)cccn2c1C(=O)NCC(O)COc1ccc(F)cc1 (centres unmarked) [Example 136, 8-[(2,6-difluorobenzyl)oxy]-N-[3-(4-fluorophenoxy)-2-hydroxypropyl]-2-methylimidazo[1,2-a]pyridine-3-carboxamide]
25 | 3.0 | Cc1nc2c(OCc3c(F)cccc3F)cccn2c1C(=O)NCC(O)COc1ccccc1 (centres unmarked) [Example 137, 8-[(2,6-difluorobenzyl)oxy]-N-(2-hydroxy-3-phenoxypropyl)-2-methylimidazo[1,2-a]-pyridine-3-carboxamide]

Row | Structure (SMILES) | MEC (minimal effective concentration) [µM]
26 | Cc1nc2c(OCC3CCCCC3)cccn2c1C(=O)NC(CO)COC(C)(C)C (centres unmarked) [Example 94, N-(1-tert-butoxy-3-hydroxypropan-2-yl)-8-(cyclohexylmethoxy)-2-methylimidazo[1,2-a]-pyridine-3-carboxamide] | 3.0
